Experimental data from patent US7501541B2, “Malonamides as orexin antagonists” (Hoffmann-La Roche Inc., priority 2007, dated 2009).
No end group written: not given here.

Columns and labels:
[1] = biological target: T1, human orexin-2 (hOX2) receptors (Homo sapiens, UniProt O43614); experiment: Intracellular Ca2+ mobilization assay (FLIPR), CHO(dHFr-) cells expressing hOX2; assay type: cell-based; settings: antagonism of orexin-A at EC80; Kb=IC50/(1+[A]/EC50); CHO(dHFr-)-OX2R cells
T1 construct: expressed in transfected cells
T1 sequence (O43614 1-444): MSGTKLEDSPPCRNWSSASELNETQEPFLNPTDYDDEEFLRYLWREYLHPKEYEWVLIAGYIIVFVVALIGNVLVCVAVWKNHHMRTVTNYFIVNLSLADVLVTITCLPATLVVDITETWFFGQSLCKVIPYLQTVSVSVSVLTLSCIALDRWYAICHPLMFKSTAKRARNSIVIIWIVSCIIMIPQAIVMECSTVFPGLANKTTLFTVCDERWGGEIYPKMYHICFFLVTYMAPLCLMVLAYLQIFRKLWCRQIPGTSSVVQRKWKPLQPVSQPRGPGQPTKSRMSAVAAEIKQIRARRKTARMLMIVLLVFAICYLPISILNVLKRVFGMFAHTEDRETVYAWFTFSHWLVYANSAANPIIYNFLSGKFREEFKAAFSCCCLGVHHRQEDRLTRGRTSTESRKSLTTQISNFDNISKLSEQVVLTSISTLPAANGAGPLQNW
Protocol: (§1) Intracellular Ca^2+ Mobilization Assay
(§2) The Chinese Hamster Ovary (dHFr-) mutant cell line stably expressing human orexin-1 (hOX1) or human orexin-2 (hOX2) receptors were maintained in Dulbecco's Modified Eagle Medium (1X) with GlutaMax™ 1, 4500 mg/L D-Glucose and Sodium Pyruvate (Catalog No. 31966-021, Invitrogen, Carlsbad, Calif.), 5% dialyzed fetal calf serum (Catalog No. 26400-044), 100 μg/ml penicillin and 100 μg/ml streptomycin. The cells were seeded at 5×10^4 cells/well in the poly-D-lysine treated, 96-well, black/clear-bottomed plates (Catalog No. BD356640, BD Biosciences, Palo Alto, Calif.). 24 h later, the cells were loaded for 1 h at 37° C. with 4 μM Flou-4 acetoxymethyl ester (Catalog No. F-14202, Molecular Probes, Eugene, Oreg.) in FLIPR buffer (1×HBSS, 20 mM HEPES, 2.5 mM Probenecid). Hanks' Balanced Salt Solution (HBSS) (10×) (catalog No. 14065-049) and HEPES (1M) (catalog No. 15630-056) were purchased from Invitrogen, Carlsbad, Calif. Probenecid (250 mM) (catalog No. P8761) was from Sigma, Buchs, Switzerland. The cells were washed five times with FLIPR buffer to remove excess dye and intracellular calcium mobilization, [Ca^2+]i were measured using a Fluorometric Imaging Plate Reader (FLIPR-96, Molecular Devices, Menlo Park, Calif.) as described previously (Malherbe et al., Mol. Pharmacol., 64, 823-832, 2003). Orexin A (catalog No. 1455, Toris Cookson Ltd, Bristol, UK) was used as agonist. Orexin A ([…] stock solution in DMSO) was diluted in FLIPR buffer +0.1% BSA. The EC50 and EC80 values of orexin-A were measured daily from standard agonist concentration-response curves in CHO(dHFr-)-OX1R and -OX2R cell lines. All compounds were dissolved in 100% DMSO. Inhibition curves were determined by addition of 11 concentrations (0.0001-10 μM) of inhibitory compounds and using EC80 value of orexin-A as agonist (a concentration which gave 80% of max agonist response, determined daily). The antagonists were applied 25 min (incubation at 37° C.) before the application of the agonist. Responses were measured as peak increase in fluorescence minus basal, normalized to the maximal stimulatory effect induced by EC80 value of orexin-A or orexin-B. Inhibition curves were fitted according to the Hill equation: y=100/(1+(x/IC50)^nH), where nH=slope factor using Excel-fit 4 software (Microsoft). Kb values were calculated according to the following equation Kb=IC50/(1+[A]/EC50) where A is the concentration of agonist added which is very close to agonist EC80 value, and IC50 and EC50 values were derived from the antagonist inhibition and orexin-A or B agonist curves, respectively.

[2] = biological target: T2, human orexin-1 (hOX1) receptors (Homo sapiens, UniProt O43613); experiment: Intracellular Ca2+ mobilization assay (FLIPR), CHO(dHFr-) cells expressing hOX1; assay type: cell-based; settings: antagonism of orexin-A at EC80; Kb=IC50/(1+[A]/EC50); CHO(dHFr-)-OX1R cells
T2 construct: expressed in transfected cells
T2 sequence (O43613 1-425): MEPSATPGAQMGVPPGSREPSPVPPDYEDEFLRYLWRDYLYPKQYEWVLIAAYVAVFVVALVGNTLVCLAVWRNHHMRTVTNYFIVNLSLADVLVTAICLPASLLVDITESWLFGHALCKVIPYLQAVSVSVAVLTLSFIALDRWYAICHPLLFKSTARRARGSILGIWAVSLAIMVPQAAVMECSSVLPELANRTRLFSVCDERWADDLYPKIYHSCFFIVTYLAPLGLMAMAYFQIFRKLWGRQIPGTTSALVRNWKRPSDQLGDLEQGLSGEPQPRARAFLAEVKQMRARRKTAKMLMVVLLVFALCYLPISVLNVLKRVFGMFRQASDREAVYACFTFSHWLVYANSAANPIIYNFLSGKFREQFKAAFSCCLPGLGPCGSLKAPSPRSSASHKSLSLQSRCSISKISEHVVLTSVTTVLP
Protocol: as §1, §2

REM sleep = settings: rat, icv administration (Piper et al., 2000); cited from earlier work

| Molecule | Kb [1] | Kb [2] | reduces total REM sleep (REM sleep) |
| --- | --- | --- | --- |
| CCCCNC(=O)C(C(=O)N(CCc1ccc(C(F)(F)F)cc1)c1ccc(OC)c(OC)c1)c1ccccc1 (stereo not drawn) [Example 3, N-Butyl-N′-(3,4-dimethoxy-phenyl)-2-phenyl-N′-[2-(4-trifluoromethyl-phenyl)-ethyl]-malonamide] | 0.0419 µM | – | – |
| COCCNC(=O)C(C(=O)N(CCc1ccc(C(F)(F)F)cc1)c1ccc(OC)c(OC)c1)c1ccccc1 (stereo not drawn) [Example 5, N-(3,4-Dimethoxy-phenyl)-N′-[2-methoxy-ethyl)-2-phenyl-N-[2-(4-trifluoromethyl-phenyl)-ethyl]-malonamide] | 0.0217 µM | 0.229 µM | – |
| COc1ccc(N(CCc2ccc(C(F)(F)F)cc2)C(=O)C(C(=O)NC2CC2)c2ccccc2)cc1OC (stereo not drawn) [Example 18, N-Cyclopropyl-N′-(3,4-dimethoxy-phenyl)-2-phenyl-N′-[2-(4-trifluoromethyl-phenyl)-ethyl]-malonamide] | 0.0197 µM | 0.199 µM | – |
| COc1ccc(N(CCc2ccc(C(F)(F)F)cc2)C(=O)C(C(=O)NCC2CC2)c2ccccc2)cc1OC (stereo not drawn) [Example 20, N-Cyclopropylmethyl-N′-(3,4-dimethoxy-phenyl)-2-phenyl-N′-[2-(4-trifluoromethyl-phenyl)-ethyl]-malonamide] | 0.0468 µM | 0.292 µM | – |
| COc1ccc(N(CCc2ccc(C(F)(F)F)cc2)C(=O)C(C(=O)NCC(F)F)c2ccccc2)cc1OC (stereo not drawn) [Example 21, N-(2,2-Difluoro-ethyl)-N′-(3,4-diemthoxy-phenyl)-2-phenyl-N′-[2-(4-trifluoromethyl-phenyl)-ethyl]-malonamide] | 0.0278 µM | 0.173 µM | – |
| COc1ccc(N(CCc2ccc(C(F)(F)F)cc2)C(=O)C(C(=O)NC2CCOCC2)c2ccccc2)cc1OC (stereo not drawn) [Example 23, N-(3,4-Dimethoxy-phenyl)-2-phenyl-N′-(tetrahydro-pyran-4-yl)-N-[2-(4-trifluoromethyl-phenyl)-ethyl]-malonamide] | 0.023 µM | 0.238 µM | – |
| COc1cc(N(CCc2ccc(C(F)(F)F)cc2)C(=O)C(C(=O)N(C)C)c2ccccc2)ccc1Cl (stereo not drawn) [Example 56, N-(4-Chloro-3-methoxy-phenyl)-N′,N′-dimethyl-2-phenyl-N-[2-(4-trifluoromethyl-phenyl)-ethyl]-malonamide] | 0.055 µM | 0.295 µM | – |
| COc1ccc(N(CCc2ccc(C(F)(F)F)cc2)C(=O)C(C(=O)N(C)C)c2ccccc2)cc1Cl (stereo not drawn) [Example 58, N-(3-Chloro-4-methoxy-phenyl)-N′,N′-dimethyl-2-phenyl-N-[2-(4-trifluoromethyl-phenyl)-ethyl]-malonamide] | 0.0572 µM | 0.723 µM | – |
| OX-A: orexin-A/hypocretin1, hypothalamic neuropeptide of 33 amino acids, agonist of OX1R and OX2R (QPLPDCCRQKTCSCRLYELLHGAGNHAAGILTL; ends and bridges not checked; cysteine pairing not given here; UniProt O43612 34-66, looked up) | – | – | 84% |

The next lines start with results.

| Kb [1] | Kb [2] | Molecule | reduces total REM sleep (REM sleep) |
| --- | --- | --- | --- |
| 0.0255 µM | 0.16 µM | CNC(=O)C(C(=O)N(CCc1ccc(C(F)(F)F)cc1)c1ccc(OC)c(OC)c1)c1ccccc1 (stereo not drawn) [Example 1, N-(3,4-Dimethoxy-phenyl)-N′-methyl-2-phenyl-N-[2-(4-trifluoromethyl-phenyl)-ethyl]-malonamide] | – |
| 0.0172 µM | 0.127 µM | COc1ccc(N(CCc2ccc(C(F)(F)F)cc2)C(=O)C(C(N)=O)c2ccccc2)cc1OC (stereo not drawn) [Example 2, N-(3,4-Dimethoxy-phenyl)-2-phenyl-N-[2-(4-trifluoromethyl-phenyl)-ethyl]-malonamide] | – |
| 0.0968 µM | 0.218 µM | COc1ccc(N(CCc2ccc(C(F)(F)F)cc2)C(=O)C(C(=O)NCc2ccc(C)cc2)c2ccccc2)cc1OC (stereo not drawn) [Example 13, N-(3,4-Dimethoxy-phenyl)-N′-(4-methyl-benzyl)-2-phenyl-N-[2-(4-trifluoromethyl-phenyl)-ethyl]-malonamide] | – |
| 0.0141 µM | 0.234 µM | COc1ccc(N(CCc2ccc(C(F)(F)F)cc2)C(=O)C(C(=O)N(C)CCc2ccccc2)c2ccccc2)cc1OC (stereo not drawn) [Example 14, N-(3,4-Dimethoxy-phenyl)-N′-methyl-N′-phenethyl-2-phenyl-N-[2-(4-trifluoromethyl-phenyl)-ethyl]-malonamide] | – |
| 0.0428 µM | 0.166 µM | COc1ccc(N(CCc2ccc(C(F)(F)F)cc2)C(=O)C(C(=O)N(C)Cc2ccccc2)c2ccccc2)cc1OC (stereo not drawn) [Example 15, N-Benzyl-N′-(3,4dimethoxy-phenyl)-N-methyl-2-phenyl-N′-[2-(4-trifluoromethyl-phenyl)-ethyl]-malonamide] | – |
| 0.0817 µM | 0.252 µM | COc1ccc(N(CCc2ccc(C(F)(F)F)cc2)C(=O)C(C(=O)Nc2ccc(F)cc2)c2ccccc2)cc1OC (stereo not drawn) [Example 16, N-(3,4-Dimethoxy-phenyl)-N′-(4-fluoro-phenyl)-2-phenyl-N-[2-(4-trifluoromethyl-phenyl)-ethyl]-malonamide] | – |
| 0.0299 µM | 0.191 µM | CCNC(=O)C(C(=O)N(CCc1ccc(C(F)(F)F)cc1)c1ccc(OC)c(OC)c1)c1ccccc1 (stereo not drawn) [Example 17, N-(3,4-Dimethoxy-phenyl)-N′-ethyl-2-phenyl-N-[2-(4-trifluoromethyl-phenyl)-ethyl]-malonamide] | – |
| 0.0523 µM | 0.245 µM | CCCNC(=O)C(C(=O)N(CCc1ccc(C(F)(F)F)cc1)c1ccc(OC)c(OC)c1)c1ccccc1 (stereo not drawn) [Example 19, N-(3,4-Dimethoxy-phenyl)-2-phenyl-N′-propyl-N-[2-(4-trifluoromethyl-phenyl)-ethyl]-malonamide] | – |
| 0.0838 µM | 0.439 µM | COc1ccc(N(CCc2ccc(C(F)(F)F)cc2)C(=O)C(C(=O)Nc2cccnc2)c2ccccc2)cc1OC (stereo not drawn) [Example 22, N-(3,4-Dimethoxy-phenyl)-2-phenyl-N′-pyridin-3-yl-N-[2-(4-trifluoromethyl-phenyl)-ethyl]-malonamide] | – |
| 0.245 µM | 0.245 µM | COc1ccc(N(CCc2ccc(C(F)(F)F)cc2)C(=O)C(C(=O)NCc2cccnc2)c2ccccc2)cc1OC (stereo not drawn) [Example 24, N-(3,4-Dimethoxy-phenyl)-2-phenyl-N′-pyridin-3-ylmethyl-N-[2-(4-trifluoromethyl-phenyl)-ethyl]-malonamide] | – |
